As a reminder, the IC50 is the point on the concentration scale where inhibition reaches its midpoint. Lower therefore signals greater potency.

The target in this test is T1, Angiotensin II Receptor (Bos taurus, UniProt P25104).
T1 construct: The brownish tissue forming the adrenal cortex is scraped off and finely minced with scissors before homogenization; from tissue; host or cells: beef adrenal cortex, microsomal (100,000 x g) membranes; adrenals from a local slaughter house (Maxwell-Cohen)
T1 sequence (P25104 1-359): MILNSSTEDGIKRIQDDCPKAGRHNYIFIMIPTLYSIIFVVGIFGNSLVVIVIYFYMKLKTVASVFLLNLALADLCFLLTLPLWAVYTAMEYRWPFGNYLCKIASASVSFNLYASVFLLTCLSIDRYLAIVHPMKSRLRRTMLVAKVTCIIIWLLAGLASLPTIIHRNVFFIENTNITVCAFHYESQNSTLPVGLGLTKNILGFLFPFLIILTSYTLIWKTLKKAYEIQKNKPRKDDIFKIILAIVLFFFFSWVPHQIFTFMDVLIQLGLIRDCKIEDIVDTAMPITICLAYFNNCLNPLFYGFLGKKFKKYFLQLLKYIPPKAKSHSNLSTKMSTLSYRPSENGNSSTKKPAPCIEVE
Kind of test: Receptor Binding Assay, binding of [125I](Sar1,Ile8)AngII to beef adrenal cortex membranes. As to conditions: beef adrenal membranes; [125I](Sar1,Ile8)AngII; 60 min, room temperature, pH 7.4. The text has this: Beef adrenals are obtained from a local slaughter house (Maxwell-Cohen). [^125 I](Sar^1,Ile^8)AngII, S.A. 2200 Ci/mmole, is purchased from Dupont (NEN®, Boston, Mass.).
Approximately sixteen (16) to twenty (20) beef adrenal glands are processed as follows: fresh adrenal glands received on crushed ice are cleaned of fatty tissues and the tough membranes encapsulating the glands are removed and discarded. The brownish tissue forming the adrenal cortex is scraped off and finely minced with scissors before homogenization. Care is taken to avoid contamination with medullary tissue during dissection. The scraped cortices are suspended in twenty volumes of an ice-cold buffer medium consisting of 10 mM Tris.HCl (pH 7.4 at 22° C.) and containing 1.0 mM EDTA and 0.2M sucrose. Unless otherwise indicated, all subsequent operations are done at 4° C. […] The homogenate is centrifuged first at low speed (3,000×g) for 10 min. […] The pelleted membrane is reconstituted in 50.0 mM Tris.HCl buffer containing 0.1 mM of phenylmethylsulfonyl fluoride (PMSF) to give approximately a protein concentration of 2.5 mg per ml of tissue suspension. The membrane preparation is finally aliquoted in 1.0 ml volumes and stored at -70° C. until use in the binding assays. […]

With `CCCCc1nc2ccc(COc3ccccn3)cc2c(=O)n1Cc1ccc(-c2ccccc2-c2nnn[nH]2)cc1.Cl` [Example 12, 2-Butyl-6-[(2-pyridinyloxy)methyl]-3-[[2'-(1H-tetrazol-5-yl)[1,1'-biphenyl]-4-yl]methyl]-4(3H)-quinazolinone monohydrochloride], the IC50 was determined as 130 nM.

Values taken from patent US5286729A, “Angiotensin II receptor blocking 2,3,6 substituted quinazolinones” (American Cyanamid Company, priority 1993, dated 1994).
